This passage reports IC50 results from patent US9884063B2, “Amido-substituted azole compounds” (Bayer Pharma Aktiengesellschaft, priority 2014, dated 2018).

Test [1] has as its target T1, TNKS2 (Homo sapiens, UniProt Q9H2K2).
T1 sequence (Q9H2K2 1-1166): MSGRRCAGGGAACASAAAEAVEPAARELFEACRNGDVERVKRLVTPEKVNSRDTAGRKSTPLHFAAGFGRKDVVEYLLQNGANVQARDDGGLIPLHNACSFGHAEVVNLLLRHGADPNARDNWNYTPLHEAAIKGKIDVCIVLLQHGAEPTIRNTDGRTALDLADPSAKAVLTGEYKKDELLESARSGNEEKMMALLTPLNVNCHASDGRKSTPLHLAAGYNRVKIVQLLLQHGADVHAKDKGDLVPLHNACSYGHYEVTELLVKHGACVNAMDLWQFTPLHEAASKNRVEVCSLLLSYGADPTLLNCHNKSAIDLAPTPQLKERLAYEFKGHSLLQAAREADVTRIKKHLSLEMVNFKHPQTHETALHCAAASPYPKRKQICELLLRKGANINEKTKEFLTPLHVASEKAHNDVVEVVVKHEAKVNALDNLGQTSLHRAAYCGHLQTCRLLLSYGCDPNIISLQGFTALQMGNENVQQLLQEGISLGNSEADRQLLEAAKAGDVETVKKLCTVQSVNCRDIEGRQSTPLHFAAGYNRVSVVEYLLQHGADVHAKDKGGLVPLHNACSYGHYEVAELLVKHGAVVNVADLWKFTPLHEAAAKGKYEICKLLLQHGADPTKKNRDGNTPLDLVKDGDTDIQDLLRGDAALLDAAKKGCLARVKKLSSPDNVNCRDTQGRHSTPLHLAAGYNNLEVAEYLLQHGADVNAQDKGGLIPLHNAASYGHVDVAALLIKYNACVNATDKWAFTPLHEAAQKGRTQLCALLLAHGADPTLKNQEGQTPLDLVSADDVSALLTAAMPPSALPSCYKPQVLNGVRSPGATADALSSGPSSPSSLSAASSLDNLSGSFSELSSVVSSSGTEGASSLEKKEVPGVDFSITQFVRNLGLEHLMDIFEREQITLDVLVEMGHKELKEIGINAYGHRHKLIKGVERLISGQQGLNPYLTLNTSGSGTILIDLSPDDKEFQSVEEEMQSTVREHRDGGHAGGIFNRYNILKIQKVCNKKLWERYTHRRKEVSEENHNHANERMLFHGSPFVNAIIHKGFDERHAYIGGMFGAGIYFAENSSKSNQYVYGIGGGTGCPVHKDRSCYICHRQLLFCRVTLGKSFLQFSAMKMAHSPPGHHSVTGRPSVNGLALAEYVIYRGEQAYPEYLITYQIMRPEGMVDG
In words: Modified TNKS2 Assay 2 (auto-parsylation, [3H]-NAD+ SPA). It counts as biochemical. The following applies: 6 nM TNKS2, 96 well. The method, then:
The potency of selected compounds according to the invention was assessed applying an modified in vitro inhibition assay. Here, the TNKS2 catalyzed NAD^+-dependent ribosylation of the enzyme itself (auto-parsylation) was detected using [^3H]-NAD^+ as substrate and applying the scintillation proximity assay (SPA) method to detect tritium-labeled, parsylated TNKS2. The intensity of the readout signal is proportional to the incorporated [^3H]-NAD^+. Inhibition of TNKS2 leads to a decreased incorporation of [^3H]-NAD^+ and consequently to a lower readout signal intensity. The concentration of a test compound which inhibits the enzyme activity by 50% (corresponds to half of the normed readout signal intensity) is reported as IC50.
The assay was conducted in a 96 well MTP format with the identical TNKS2 enzyme sample and NAD^+ sample as in the histone ribosylation assay with the following modifications: TNKS2 enzyme sample was diluted with a modified assay buffer (50 mM MES pH 7.0, 1 mM DTT, 0.01% Triton X-100) to a final concentration of 6 nM TNKS2 and 10×NAD^+ solution was diluted with the modified assay buffer (s. above) to a final 0.445×NAD^+ solution doped with 100 Bq/ul [^3H]-NAD^+ [Catalog #NET443H050UC, Perkin Elmer, Waltham, Mass., USA]. Substrate solution (10 ul) was incubated with different test compound concentrations (2.5 ul in 10% DMSO in modified assay buffer) or control (2.5 ul 10% DMSO in modified assay buffer only) and enzyme (10 ul) over night at room temperature. Incorporated tritium was measured after addition of 50 ul SPA beads (1 mg/ml) [Catalog #RPNQ0095 20 mg/ml, Perkin Elmer, Waltham, Mass., USA; diluted 1:10 with Dulbecco's phosphate buffered saline, PBS Catalog #D8537, Sigma-Aldrich, Steinheim, Germany] and detection of the photon emission with a beta count plate reader [Wallac MicroBeta®, Perkin Elmer, Waltham, Mass., USA].

Test [2] relates to wildtype Wnt signaling cascade. In words: HEK293 TOP Assay (Super TopFlash luciferase reporter, Wnt-3a stimulated). In kind it is cell-based. The following applies: Homo sapiens, HEK293, 16 h. The method, boiled down: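 Compounds (50 μM down to 15 nM, 3.16-fold steps, in CAFTY buffer pH 7.4, 2 mM Ca2+, 0.01% BSA) tested in parallel on TOP and FOP HEK293 reporter lines to define selective wildtype Wnt inhibition. Pathway driven by recombinant human Wnt-3a applied at 2500–5 ng/ml in two-fold dilutions.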
Background: A reporter such as luciferase makes a cellular process visible.

Where [3] appears, read: HEK293 TOP reporter cell line, Wnt-3a at EC50, 16 hours incubation, compound dilution series 50 μM to 15 nM.
Where [4] appears, read: HEK293 TOP reporter cells, Wnt3a at EC50, 16 hours, luciferase.

Each structure is given as a SMILES string.

Take `O=C(Nc1ccc(NC(=O)c2nc[nH]c2C(=O)NC2CCOC2)cc1)c1ccc(F)cc1Cl` (stereo not shown) [Example 236, N^4-{4-[(2-chloro-4-fluorobenzoyl)amino]phenyl}-N^5-(tetrahydrofuran-3-yl)-1H-imidazole-4,5-dicarboxamide]: the IC50 – broadly, the midpoint of a concentration-inhibition curve – was 60 nM in test [1] and 420 nM in test [2] (setting [3]).
In the same order, the values of `O=C(NCCN1CCCCC1)c1nc[nH]c1C(=O)Nc1ccc(NC(=O)c2c(F)cc(F)cc2Cl)cc1` [Example 119, N^5-{4-[(2-chloro-4,6-difluorobenzoyl)amino]phenyl}-N^4-[2-(piperidin-1-yl)ethyl]-1H-imidazole-4,5-dicarboxamide] are 5 nM and 70 nM.
For `O=C(Nc1ccc(NC(=O)c2nc[nH]c2C(=O)NCCN2CCC2)cc1)c1ccc(F)cc1` [Example 199, N^5-[2-(azetidin-1-yl)ethyl]-N^4-{4-[(4-fluorobenzoyl)amino]phenyl}-1H-imidazole-4,5-dicarboxamide] the same measures were 130 nM and 1030 nM.
For `CCNC(=O)c1nc[nH]c1C(=O)Nc1ccc(NC(=O)c2ccccc2S(C)(=O)=O)cc1` [Example 257, N^4-ethyl-N^5-(4-{[2-(methylsulfonyl)benzoyl]amino}phenyl)-1H-imidazole-4,5-dicarboxamide] the same measures were 5000 nM and 2600 nM.
As to `O=C(Nc1ccc(NC(=O)c2ocnc2C(=O)NCCN2CCC(F)(F)CC2)cc1)c1ccc(F)cc1Cl` [Example 218, N^5-{4-[(2-chloro-4-fluorobenzoyl)amino]phenyl}-N^4-[2-(4,4-difluoropiperidin-1-yl)ethyl]-1,3-oxazole-4,5-dicarboxamide], the IC50 in test [1] came out at 110 nM; in test [2] (setting [3]), 1610 nM.
`CC(C)NC(=O)c1nc[nH]c1C(=O)Nc1ccc(NC(=O)c2ccc(F)cc2Cl)cc1` [Example 10, N^5-{4-[(2-chloro-4-fluorobenzoyl)amino]phenyl}-N^4-isopropyl-1H-imidazole-4,5-dicarboxamide]: the IC50 in test [1] turned out to be 350 nM; in test [2] (setting [3]), 170 nM; in test [2] (setting [4]), 180 nM.
In the same order, the values of `O=C(Nc1ccc(NC(=O)c2[nH]cnc2C(=O)NCC(F)(F)F)cc1)c1ccc(F)cc1Cl` [Example 30, N^4-{4-[(2-chloro-4-fluorobenzoyl)amino]phenyl}-N^5-(2,2,2-trifluoroethyl)-1H-imidazole-4,5-dicarboxamide] are 40 nM, 190 nM and 160 nM.
For `CNC(=O)c1nc[nH]c1C(=O)Nc1ccc(NC(=O)c2ccc(Cl)cc2Cl)cc1` [Example 9, N^5-{4-[(2,4-dichlorobenzoyl)amino]phenyl}-N^4-methyl-1H-imidazole-4,5-dicarboxamide] the same measures were 80 nM, 140 nM and 150 nM.
In the same order, the values of `CNC(=O)c1nc[nH]c1C(=O)Nc1ccc(NC(=O)c2ccc(F)cc2Cl)nc1` [Example 16, N^5-{6-[(2-chloro-4-fluorobenzoyl)amino]pyridin-3-yl}-N^4-methyl-1H-imidazole-4,5-dicarboxamide] are 100 nM, 180 nM and 180 nM.
For the molecule `CNC(=O)c1nc[nH]c1C(=O)Nc1ccc(NC(=O)c2ccc(OCCN3CCN(C)CC3)cc2Cl)cc1` [Example 28, N^5-[4-({2-chloro-4-[2-(4-methylpiperazin-1-yl)ethoxy]benzoyl}amino)phenyl]-N^4-methyl-1H-imidazole-4,5-dicarboxamide], the values for the IC50 in test [1], in test [2] (setting [3]) and in test [2] (setting [4]) were 180 nM, 530 nM and 680 nM, respectively.
With `O=C(Nc1ccc(NC(=O)c2nc[nH]c2C(=O)NCCCN2CCOCC2)cc1)c1ccccc1Cl` [Example 200, N^4-{4-[(2-chlorobenzoyl)amino]phenyl}-N^5-[3-(morpholin-4-yl)propyl]-1H-imidazole-4,5-dicarboxamide], the IC50 in test [1] was 580 nM; in test [2] (setting [3]) it was 870 nM.
In the same order, the values of `CC(C)(CNC(=O)c1[nH]cnc1C(=O)Nc1ccc(NC(=O)c2ccc(F)cc2)cc1)N1CCCCC1` [Example 209, N^4-{4-[(4-fluorobenzoyl)amino]phenyl}-N^5-[2-methyl-2-(piperidin-1-yl)propyl]-1H-imidazole-4,5-dicarboxamide] are 460 nM and 850 nM.
For `CN1CCN(C(C)(C)CNC(=O)c2[nH]cnc2C(=O)Nc2ccc(NC(=O)c3ccc(F)cc3Cl)cc2)CC1` [Example 187, N^4-{4-[(2-chloro-4-fluorobenzoyl)amino]phenyl}-N^5-[2-methyl-2-(4-methylpiperazin-1-yl)propyl]-1H-imidazole-4,5-dicarboxamide] the same measures were 100 nM and 350 nM.
On to `CNC(=O)c1nc[nH]c1C(=O)Nc1ccc(NC(=O)c2c(Cl)cccc2Cl)cc1` [Example 26, N^5-{4-[(2,6-dichlorobenzoyl)amino]phenyl}-N^4-methyl-1H-imidazole-4,5-dicarboxamide], for which the IC50 in test [1] is 1600 nM; in test [2] (setting [3]), 1350 nM; in test [2] (setting [4]), 800 nM.
In the same order, the values of `CNC(=O)c1nc[nH]c1C(=O)Nc1ccc(NC(=O)c2ccc(F)cc2)cc1` [Example 20, N^5-{4-[(4-fluorobenzoyl)amino]phenyl}-N^4-methyl-1H-imidazole-4,5-dicarboxamide] are above 10000 nM, 11200 nM and 3350 nM.
Turning to `CC(C)(CNC(=O)c1[nH]cnc1C(=O)Nc1ccc(NC(=O)c2ccccc2Cl)cc1)N1CCCCC1` [Example 165, N^4-{4-[(2-chlorobenzoyl)amino]phenyl}-N^5-[2-methyl-2-(piperidin-1-yl)propyl]-1H-imidazole-4,5-dicarboxamide], the figures for the IC50 in test [1] and in test [2] (setting [3]) were 70 nM and 290 nM, respectively.
In the same order, the values of `CC1CCN(CC(C)(C)NC(=O)c2[nH]cnc2C(=O)Nc2ccc(NC(=O)c3ccc(F)cc3Cl)cc2)CC1` [Example 155, N^4-{4-[(2-chloro-4-fluorobenzoyl)amino]phenyl}-N^5-[2-methyl-1-(4-methylpiperidin-1-yl)propan-2-yl]-1H-imidazole-4,5-dicarboxamide] are 80 nM and 660 nM.
In the same order, the values of `NC(=O)c1nc[nH]c1C(=O)Nc1ccc(NC(=O)c2ccc(F)cc2Cl)cc1` [Example 121] are 70 nM and 270 nM.
`CNC(=O)c1nc[nH]c1C(=O)Nc1ccc(NC(=O)c2ccccc2C)cc1` [Example 19, N^4-methyl-N^5-{4-[(2-methylbenzoyl)amino]phenyl}-1H-imidazole-4,5-dicarboxamide]: the IC50 in test [1] amounted to 1800 nM; in test [2] (setting [3]) it was 1150 nM; in test [2] (setting [4]) it was 1250 nM.
